Here are results for 36 compounds from patent US11414378B2, “Anti-fungals compounds targeting the synthesis of fungal sphingolipids” (THE RESEARCH FOUNDATION FOR THE STATE UNIVERSITY OF NEW YORK, priority 2017, dated 2022).

The test system of one test is C. neoformans cells. Kind of test: In vitro killing activity (K100) assay. As to conditions: minimum concentration that kills 100% of C. neoformans cells in 48 h; for MFC: Cryptococcus neoformans. Format: cell-based, Cryptococcus neoformans. On the procedure: C. neoformans cells from a culture grown overnight were washed in PBS and resuspended in YNB buffered with HEPES at pH 7.4. The cells were counted, and 2×10^4 cells were incubated with different concentration of compounds in a final volume of 10 ml with a final concentration of 0.5% DMSO. The tubes were then incubated at 37° C. with 5% CO2 on a rotary shaker at 200 rpm. Aliquots were taken at time points and diluted, and […] were plated onto Yeast Extract-Peptone-Dextrose (YPD) plates. YPD plates were incubated in a 30° C. incubator and after 48 h, the numbers of CFU were counted and recorded.

The subject of another test is C. neoformans. Kind of test: In vitro susceptibility (MIC80) assay. Type of test: cell-based. The settings on record: Cryptococcus neoformans; lowest concentration that inhibited 80% of growth; YNB pH 7.0, HEPES, 37° C., 5% CO2. On the procedure: MICs was determined following the methods of the Clinical and Laboratory Standards Institutes (CLSI) with modifications. Yeast Nitrogen Base (YNB) medium (pH 7.0, 0.2% glucose) buffered with HEPES was used for MIC studies. […] The compound was serially diluted from 16 to 0.03 μg/ml, in a 96-well plate. The inoculum was prepared as described in the CLSI protocol M27A3 guidelines. The plates were incubated at 37° C. with 5% CO2 for 24 to 72 h and the optical density was measure at 450 nm. The MICs was determined as the lowest concentration of the compound that inhibited 80% of growth compared to the control.

SMILES strings stand for the structures. ≈ marks a conversion by molar mass, not a printed value.

`O=C(N/N=C/c1cc(OC(F)(F)F)ccc1O)c1ccc(Br)cc1` [Compound A1, 4-Bromo-N′-(2-hydroxy-5-trifluoromethoxybenzylidene)benzohydrazide] registered an MFC against C. neoformans cells of over 1 µg/mL. The compound also yielded an MIC80 in the test with C. neoformans of 0.25 µg/mL (≈ 0.62 µM). `O=C(N/N=C/c1cc(F)ccc1O)c1ccc(Br)cc1` [Compound A2, 4-Bromo-N′-(5-fluoro-2-hydroxybenzylidene)benzohydrazide] returned an MFC with C. neoformans cells of over 4 µg/mL. For the same compound, the MIC80 against C. neoformans stood at 1 µg/mL (≈ 2.97 µM).

`O=C(N/N=C/c1cc(OC(F)(F)F)ccc1O)c1ccc(Br)cc1Br` [Compound A3, 2,4-Dibromo-N′-(2-hydroxy-5-trifluoromethoxybenzylidene)benzohydrazide] returned an MFC against C. neoformans cells of 2 µg/mL (≈ 4.15 µM). In addition, the MIC80 in the test with C. neoformans was 0.25 µg/mL (≈ 0.519 µM). Compound `O=C(N/N=C/c1cc(F)ccc1O)c1ccc(Br)cc1Br` [Compound A4, 2,4-Dibromo-N′-(5-fluoro-2-hydroxybenzylidene)benzohydrazide] showed an MFC in the test on C. neoformans cells of over 4 µg/mL. In addition, in the test with C. neoformans, the MIC80 stood at 1 µg/mL (≈ 2.4 µM).

Turning to `O=C(N/N=C/c1cc(Br)ccc1O)c1cccc(OC(F)F)c1` [Compound A5, 3-Difluoromethoxy-N′-(5-bromo-2-hydroxybenzylidene)benzohydrazide], the “K100* (μg/mL)” value in the test on C. neoformans cells is “Fungistatic”. This compound gave an MIC80 against C. neoformans of 0.12 µg/mL (≈ 0.312 µM). In turn, `O=C(N/N=C/c1cc(Br)cc(Br)c1O)c1cccc(OC(F)F)c1` [Compound A6, 3-Difluoromethoxy-N′-(3,5-dibromo-2-hydroxybenzylidene)benzohydrazide] had an MFC in the test on C. neoformans cells of 0.5 µg/mL (≈ 1.08 µM). Further, the MIC80 against C. neoformans was 0.12 µg/mL (≈ 0.259 µM).

Take `O=C(N/N=C/c1cc(Br)ccc1O)c1ccc(OC(F)(F)F)cc1` [Compound A7, 4-Trifluoromethoxy-N′-(5-bromo-2-hydroxybenzylidene)benzohydrazide]: the MFC in the test with C. neoformans cells is over 4 µg/mL. The compound further had an MIC80 in the test with C. neoformans of 0.5 µg/mL (≈ 1.24 µM). Taken in the same sequence, the figures for `O=C(N/N=C/c1cc(Br)ccc1O)c1ccc(C(F)(F)F)cc1F` [Compound A8, 2-Fluoro-4-trifluoromethyl-N′-(5-bromo-2-hydroxybenzylidene)benzohydrazide] were 1 µg/mL (≈ 2.47 µM) and 0.5 µg/mL (≈ 1.23 µM). In the test on C. neoformans cells, `O=C(N/N=C/c1cc(Br)cc(Br)c1O)c1ccc(C(F)(F)F)cc1F` [Compound A9, 2-Fluoro-4-trifluoromethyl-N′-(3,5-dibromo-2-hydroxybenzylidene)benzohydrazide] gave an MFC of 0.5 µg/mL (≈ 1.03 µM). The MIC80 in the test with C. neoformans was determined as 0.12 µg/mL (≈ 0.248 µM). `O=C(N/N=C/c1cc(Br)cc(Br)c1O)c1cnc2ccccc2c1` [Compound A10, N′-(3,5-dibromo-2-hydroxybenzylidene) quinolinylhydrazide]: the “K100* (μg/mL)” value with C. neoformans cells is reported as “Fungistatic”. The MIC80 in the test on C. neoformans turned out to be 0.25 µg/mL (≈ 0.557 µM).

Consider `N#Cc1ccc(C(=O)N/N=C/c2cc(Br)cc(Br)c2O)cc1` [Compound A11, 4-Cyano-N′-(3,5-dibromo-2-hydroxybenzylidene)benzohydrazide], for which the MFC with C. neoformans cells was over 1 µg/mL. Besides, the MIC80 with C. neoformans was 0.06 µg/mL (≈ 0.142 µM). Taken in the same sequence, the figures for `O=C(N/N=C/c1cc(Br)ccc1O)c1ccc(OC(F)(F)F)cc1F` [Compound A12, 2-Fluoro-4-trifluoromethoxy-N′-(5-bromo-2-hydroxybenzylidene)benzohydrazide] were 0.5 µg/mL (≈ 1.19 µM) and 0.5 µg/mL (≈ 1.19 µM). In the case of `O=C(N/N=C/c1cc(Br)cc(Br)c1O)c1ccc(OC(F)(F)F)cc1F` [Compound A13, 2-Fluoro-4-trifluoromethoxy-N′-(3,5-dibromo-2-hydroxybenzylidene)-benzohydrazide], in the test with C. neoformans cells, the MFC stood at 0.5 µg/mL (≈ 1 µM). In the test with C. neoformans, this compound gave an MIC80 of 0.06 µg/mL (≈ 0.12 µM). Take `O=C(N/N=C/c1cc(C(F)(F)F)ccc1O)c1cccc(Br)c1` [Compound A14, 3-Bromo-N′-(2-hydroxy-5-trifluoromethylbenzylidene)benzohydrazide]: the MFC in the test on C. neoformans cells was over 2 µg/mL. Moreover, in the test with C. neoformans, the MIC80 was found to be 0.5 µg/mL (≈ 1.29 µM).

`CN(C)c1ccc(C(=O)N/N=C/c2ccc(Br)cc2O)cc1` [Compound A16] yielded an MFC against C. neoformans cells of over 1 µg/mL. The MIC80 against C. neoformans stood at 0.25 µg/mL (≈ 0.69 µM).

`Cc1ccc(O)c(/C=N/NC(=O)c2cc(Br)cc(Br)c2O)c1` [Compound A17, 3,5-Dibromo-2-hydroxy-N′-(5-methyl-2-hydroxyphenylmethylidene)benzohydrazide] had an MFC against C. neoformans cells of 0.25 µg/mL (≈ 0.584 µM). Besides, the MIC80 against C. neoformans was 0.25 µg/mL (≈ 0.584 µM). In turn, `O=C(N/N=C/c1ccc(Br)cc1O)c1cc(Br)cc(Br)c1O` [Compound A18, 3,5-Dibromo-2-hydroxy-N′-(4-bromo-2-hydroxybenzylidene)benzohydrazide] came in with an MFC with C. neoformans cells of 0.25 µg/mL (≈ 0.507 µM). Moreover, in the test with C. neoformans, the MIC80 worked out at 0.25 µg/mL (≈ 0.507 µM). Regarding `O=C(N/N=C/c1ccc(Br)cc1O)c1ccc(OC(F)F)cc1` [Compound A21, 4-Difluoromethoxy-N′-(4-bromo-2-hydroxybenzylidene)benzohydrazide], the MIC80 in the test on C. neoformans turned out to be 0.12 µg/mL (≈ 0.312 µM).

The compound `O=C(N/N=C/c1cc(Br)ccc1O)c1ccc(OC(F)F)cc1` [Compound A22, 4-Difluoromethoxy-N′-(5-bromo-2-hydroxybenzylidene)benzohydrazide] showed an MIC80 with C. neoformans of 0.25 µg/mL (≈ 0.649 µM). In the case of `O=C(N/N=C/c1cc(Br)cc(Br)c1O)c1ccc(OC(F)F)cc1` [Compound A23, 4-Difluoromethoxy-N′-(3,5-dibromo-2-hydroxybenzylidene)benzohydrazide], in the test with C. neoformans, the MIC80 is 0.12 µg/mL (≈ 0.259 µM). In the test with C. neoformans cells, `O=C(N/N=C/c1cccc(Cl)c1O)c1cccc(C(F)(F)F)c1` [Compound A24, 3-Trifluoromethyl-N′-(3-chloro-2-hydroxybenzylidene)benzohydrazide] showed an MFC of 4 µg/mL (≈ 11.7 µM). The MIC80 in the test with C. neoformans turned out to be 1 µg/mL (≈ 2.92 µM). The corresponding values for `O=C(N/N=C/c1cccc(Br)c1O)c1cccc(C(F)(F)F)c1` [Compound A25, 3-Trifluoromethyl-N′-(3-bromo-2-hydroxybenzylidene)benzohydrazide] are 2 µg/mL (≈ 5.17 µM) and 1 µg/mL (≈ 2.58 µM). Take `O=C(N/N=C/c1ccc(Br)cc1O)c1cccc(C(F)(F)F)c1` [Compound A26, 3-Trifluoromethyl-N′-(4-bromo-2-hydroxybenzylidene)benzohydrazide]: the MFC against C. neoformans cells is 1 µg/mL (≈ 2.58 µM). In addition, in the test with C. neoformans, the MIC80 worked out at 0.5 µg/mL (≈ 1.29 µM). The corresponding values for `O=C(N/N=C/c1cccc(Br)c1O)c1cccc(F)c1` [Compound A27, 3-Fluoro-N′-(3-bromo-2-hydroxybenzylidene)benzohydrazide] are 2 µg/mL (≈ 5.93 µM) and 1 µg/mL (≈ 2.97 µM).

`O=C(N/N=C/c1ccc(Br)cc1O)c1cccc(F)c1` [Compound A28, 3-Fluoro-N′-(4-bromo-2-hydroxybenzylidene)benzohydrazide] gave an MFC against C. neoformans cells of over 2 µg/mL. In the test with C. neoformans, this compound came in with an MIC80 of 0.5 µg/mL (≈ 1.48 µM). For `O=C(N/N=C/c1cc(Br)cc(Br)c1O)c1ccc(Br)c(Br)c1` [Compound A29, 3,4-Dibromo-N′-(3,5-dibromo-2-hydroxybenzylidene)benzohydrazide], in the test with C. neoformans cells, the MFC was over 0.5 µg/mL. Moreover, the MIC80 against C. neoformans was found to be 0.06 µg/mL (≈ 0.108 µM). As to `O=C(N/N=C/c1cc(Cl)cc(Cl)c1O)c1ccc(Br)c(Br)c1` [Compound A30, 3,4-Dibromo-N′-(3,5-dichloro-2-hydroxybenzylidene)benzohydrazide], the MFC in the test with C. neoformans cells is over 0.025 µg/mL. The compound also showed an MIC80 in the test with C. neoformans of under 0.03 µg/mL.

For the compound `O=C(N/N=C/c1cc(Cl)ccc1O)c1ccc(Br)c(Br)c1` [Compound A31, 3,4-Dibromo-N′-(5-chloro-2-hydroxybenzylidene)benzohydrazide], in the test with C. neoformans cells, the MFC is over 0.5 µg/mL. In addition, in the test on C. neoformans, the MIC80 is 0.06 µg/mL (≈ 0.139 µM).

Compound `O=C(N/N=C/c1c(O)ccc2ccccc12)c1ccc(Br)c(Br)c1` [Compound A32, 3,4-Dibromo-N′-(2-hydroxy-1-naphthylidene)benzohydrazide] displayed an MFC against C. neoformans cells of over 1 µg/mL. In the test with C. neoformans, this compound showed an MIC80 of 0.12 µg/mL (≈ 0.268 µM). In the test on C. neoformans cells, `O=C(N/N=C/c1cc(Br)ccc1O)c1ccc(Br)c(Br)c1` [Compound A33, 3,4-Dibromo-N′-(5-bromo-2-hydroxybenzylidene)benzohydrazide] gave an MFC of 2 µg/mL (≈ 4.19 µM). The MIC80 in the test on C. neoformans turned out to be 0.25 µg/mL (≈ 0.524 µM).

In the case of `Cc1ccc(O)c(/C=N/NC(=O)c2ccc(Br)c(Br)c2)c1` [Compound A34, 3,4-Dibromo-N′-(2-hydroxy-5-methylbenzylidene)benzohydrazide], the MFC against C. neoformans cells was over 1 µg/mL. The compound further came in with an MIC80 against C. neoformans of 0.12 µg/mL (≈ 0.291 µM). The corresponding values for `O=C(N/N=C/c1ccc(Br)cc1O)c1ccc(Br)c(Br)c1` [Compound A35, 3,4-Dibromo-N′-(4-bromo-2-hydroxybenzylidene)benzohydrazide] are over 5 µg/mL and 0.06 µg/mL (≈ 0.126 µM). In the test on C. neoformans cells, `O=C(N/N=C/c1cc(Br)ccc1O)c1cc(Br)cc(Br)c1` [Compound A36, 3,5-Dibromo-N′-(5-bromo-2-hydroxybenzylidene)benzohydrazide] registered an MFC of over 5 µg/mL. Also, the MIC80 in the test on C. neoformans worked out at 0.06 µg/mL (≈ 0.126 µM).

For the compound `O=C(N/N=C/c1c(O)ccc2ccccc12)c1cc(Br)cc(Br)c1` [Compound A37, 3,5-Dibromo-N′-(2-hydroxy-1-naphthylidene)benzohydrazide], the MFC in the test with C. neoformans cells stood at 0.5 µg/mL (≈ 1.12 µM). The compound also yielded an MIC80 in the test with C. neoformans of 0.25 µg/mL (≈ 0.558 µM). In the test on C. neoformans cells, `O=C(N/N=C/c1cc(Cl)cc(Cl)c1O)c1cc(Br)cc(Br)c1` [Compound A38, 3,5-Dibromo-N′-(3,5-dichloro-2-hydroxybenzylidene)benzohydrazide] had an MFC of 0.5 µg/mL (≈ 1.07 µM). This compound also showed an MIC80 in the test on C. neoformans of 0.5 µg/mL (≈ 1.07 µM). Compound `O=C(N/N=C/c1ccc(Br)cc1O)c1cc(Br)cc(Br)c1` [Compound A39, 3,5-Dibromo-N′-(4-bromo-2-hydroxybenzylidene)benzohydrazide] returned an MFC in the test with C. neoformans cells of 1 µg/mL (≈ 2.1 µM). For the same compound, the MIC80 in the test with C. neoformans was determined as 1 µg/mL (≈ 2.1 µM).
